Assay results reported in patent publication US10463658B2, “Method of inhibiting FLT3 kinase” (AROG Pharmaceuticals, LLC, priority 2013, dated 2019).

Legend:
FLT3 D835Y = biological target: T1, FLT3 D835Y (Homo sapiens, UniProt P36888, D835Y); experiment: KINOMEscan KdElect competitive binding assay, FLT3 D835Y; conditions: tosylate salt
T1 construct: host or cells: E. coli BL21-derived host (T7 phage) or HEK-293
T1 sequence (P36888 610-943 D835Y limits assumed): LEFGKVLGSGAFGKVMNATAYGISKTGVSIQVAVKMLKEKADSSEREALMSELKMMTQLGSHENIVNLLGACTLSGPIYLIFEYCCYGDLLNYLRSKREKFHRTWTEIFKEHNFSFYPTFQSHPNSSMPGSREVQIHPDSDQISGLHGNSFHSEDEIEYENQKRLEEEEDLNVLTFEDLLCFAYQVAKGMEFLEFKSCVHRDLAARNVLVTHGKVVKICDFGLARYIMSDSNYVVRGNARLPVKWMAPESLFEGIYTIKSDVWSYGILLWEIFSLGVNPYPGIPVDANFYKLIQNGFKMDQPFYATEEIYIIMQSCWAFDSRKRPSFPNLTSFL
From the text: Competitive binding assay.
The lysates were then centrifuged and filtered.

wild type FLT3 = biological target: T2, wild type FLT3 (Homo sapiens, UniProt P36888); experiment: Direct enzyme phosphorylation assay (Millipore Kinase IC50 Profiler), wild type FLT3; assay type: biochemical; conditions: tosylate salt; n=2; read-out: IC50 against wild type FLT3
T2 construct: purchased Millipore
T2 sequence (P36888 27-993): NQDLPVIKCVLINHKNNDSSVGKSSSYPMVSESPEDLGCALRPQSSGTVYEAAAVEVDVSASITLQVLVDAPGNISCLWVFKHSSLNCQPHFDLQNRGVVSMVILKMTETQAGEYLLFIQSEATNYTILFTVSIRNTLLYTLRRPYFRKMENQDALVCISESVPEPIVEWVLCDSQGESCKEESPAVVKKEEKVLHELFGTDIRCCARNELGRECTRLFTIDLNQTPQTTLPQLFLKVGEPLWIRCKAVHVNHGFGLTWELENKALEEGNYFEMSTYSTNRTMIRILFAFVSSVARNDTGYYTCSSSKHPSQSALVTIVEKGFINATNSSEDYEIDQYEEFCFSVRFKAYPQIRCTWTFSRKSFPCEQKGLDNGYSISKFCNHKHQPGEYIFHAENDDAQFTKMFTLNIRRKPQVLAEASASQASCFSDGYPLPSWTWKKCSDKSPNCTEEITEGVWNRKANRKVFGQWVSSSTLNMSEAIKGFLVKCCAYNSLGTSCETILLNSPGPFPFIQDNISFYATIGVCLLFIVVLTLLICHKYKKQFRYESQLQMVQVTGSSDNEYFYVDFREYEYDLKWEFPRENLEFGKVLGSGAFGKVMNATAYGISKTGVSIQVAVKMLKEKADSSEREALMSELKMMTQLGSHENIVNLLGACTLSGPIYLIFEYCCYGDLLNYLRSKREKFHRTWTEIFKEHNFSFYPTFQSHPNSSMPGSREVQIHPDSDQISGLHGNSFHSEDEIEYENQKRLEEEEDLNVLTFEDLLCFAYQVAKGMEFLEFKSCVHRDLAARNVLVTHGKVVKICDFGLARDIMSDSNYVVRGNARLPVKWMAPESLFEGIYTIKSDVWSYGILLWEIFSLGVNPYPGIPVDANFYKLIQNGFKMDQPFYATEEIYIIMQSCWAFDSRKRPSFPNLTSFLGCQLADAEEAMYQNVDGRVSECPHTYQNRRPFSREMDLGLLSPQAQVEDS
Method: Direct enzyme phosphorylation assay. The Millipore Kinase IC50 Profiler assay was used to screen the present invention against a panel of normal FLT3 and mutated FLT3 kinases. For assays of both kinases, the FLT3 enzyme was incubated with 8 mM of 3-(N-morpholino)propanesulfonic acid (MOPS) at a pH of 7.0, 0.2 mM Ethylenediaminetetraacetic acid (EDTA), 50 uM, a synthetic Abl peptide substrate […] (SEQ ID NO: 1), 10 mM MgAcetate and [γ-^33P-ATP]. The reaction was initiated by the addition of MgATp mix. The reaction mixture was incubated for 40 minutes at room temperature and halted by the addition of 3% phosphoric acid solution. 10 uL of the reaction solution was spotted on P30 filtermat and washed three times in 75 mM phosphoric acid for 5 minutes and then once in methanol prior to drying and scintillation counting. The scintillation values for each replicate, including positive and negative controls, were analyzed using XLFit version 5.1 to determine the IC50 values for the present invention against normal and mutated FLT3.

FLT3 ITD = biological target: T3, FLT3 ITD (Homo sapiens, UniProt P36888); conditions: read-out: Binding Constant (Kd), FLT3 ITD; CP-673,451 as tosylate salt
T3 sequence (P36888 1-993): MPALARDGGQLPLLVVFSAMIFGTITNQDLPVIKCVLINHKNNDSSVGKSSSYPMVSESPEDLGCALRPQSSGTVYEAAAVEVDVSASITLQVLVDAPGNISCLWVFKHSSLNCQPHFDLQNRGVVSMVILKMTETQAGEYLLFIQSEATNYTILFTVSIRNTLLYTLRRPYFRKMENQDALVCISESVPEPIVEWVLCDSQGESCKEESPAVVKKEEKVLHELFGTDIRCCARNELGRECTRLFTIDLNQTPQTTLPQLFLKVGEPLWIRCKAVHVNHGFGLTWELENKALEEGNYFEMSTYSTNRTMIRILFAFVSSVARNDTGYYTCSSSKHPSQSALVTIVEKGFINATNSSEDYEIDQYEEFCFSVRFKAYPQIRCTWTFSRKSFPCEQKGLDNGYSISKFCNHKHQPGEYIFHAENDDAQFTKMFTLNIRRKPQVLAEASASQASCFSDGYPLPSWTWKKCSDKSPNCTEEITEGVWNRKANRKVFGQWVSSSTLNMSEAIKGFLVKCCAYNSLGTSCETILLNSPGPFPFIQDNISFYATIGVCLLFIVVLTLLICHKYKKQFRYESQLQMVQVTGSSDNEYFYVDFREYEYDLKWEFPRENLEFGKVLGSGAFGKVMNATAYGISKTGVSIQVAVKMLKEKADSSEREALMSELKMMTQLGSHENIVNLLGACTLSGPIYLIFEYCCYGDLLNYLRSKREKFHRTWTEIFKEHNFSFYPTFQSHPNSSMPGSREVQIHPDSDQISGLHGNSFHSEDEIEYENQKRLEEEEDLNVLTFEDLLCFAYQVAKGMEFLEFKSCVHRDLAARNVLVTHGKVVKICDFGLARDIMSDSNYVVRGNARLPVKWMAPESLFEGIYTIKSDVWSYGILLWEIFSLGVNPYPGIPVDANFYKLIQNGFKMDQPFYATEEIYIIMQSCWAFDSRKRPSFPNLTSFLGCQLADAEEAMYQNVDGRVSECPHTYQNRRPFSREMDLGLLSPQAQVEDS

- Kd (FLT3 D835Y): 0.1 nM
- IC50 (wild type FLT3): 4 nM
- Kd (FLT3 ITD): 0.25 nM
SMILES: COCCOc1ccc2c(c1)ncn2-c1ccc2cccc(N3CCC(N)CC3)c2n1 [CP-673,451]
